The source of these data is ChEMBL document CHEMBL5725519, “Substituted benzamides and methods of use thereof” (2017).

Experiment [1] has as its target Sodium channel protein type 9 subunit alpha (Homo sapiens, UniProt Q15858). Put plainly: (§1) Control sodium currents were measured in 0.5% DMSO. The format is cell-based.
A short description of experiment [2]: as §1. The format is cell-based.

Sodium channel protein type 9 subunit alpha, sequence (Q15858 whole entry): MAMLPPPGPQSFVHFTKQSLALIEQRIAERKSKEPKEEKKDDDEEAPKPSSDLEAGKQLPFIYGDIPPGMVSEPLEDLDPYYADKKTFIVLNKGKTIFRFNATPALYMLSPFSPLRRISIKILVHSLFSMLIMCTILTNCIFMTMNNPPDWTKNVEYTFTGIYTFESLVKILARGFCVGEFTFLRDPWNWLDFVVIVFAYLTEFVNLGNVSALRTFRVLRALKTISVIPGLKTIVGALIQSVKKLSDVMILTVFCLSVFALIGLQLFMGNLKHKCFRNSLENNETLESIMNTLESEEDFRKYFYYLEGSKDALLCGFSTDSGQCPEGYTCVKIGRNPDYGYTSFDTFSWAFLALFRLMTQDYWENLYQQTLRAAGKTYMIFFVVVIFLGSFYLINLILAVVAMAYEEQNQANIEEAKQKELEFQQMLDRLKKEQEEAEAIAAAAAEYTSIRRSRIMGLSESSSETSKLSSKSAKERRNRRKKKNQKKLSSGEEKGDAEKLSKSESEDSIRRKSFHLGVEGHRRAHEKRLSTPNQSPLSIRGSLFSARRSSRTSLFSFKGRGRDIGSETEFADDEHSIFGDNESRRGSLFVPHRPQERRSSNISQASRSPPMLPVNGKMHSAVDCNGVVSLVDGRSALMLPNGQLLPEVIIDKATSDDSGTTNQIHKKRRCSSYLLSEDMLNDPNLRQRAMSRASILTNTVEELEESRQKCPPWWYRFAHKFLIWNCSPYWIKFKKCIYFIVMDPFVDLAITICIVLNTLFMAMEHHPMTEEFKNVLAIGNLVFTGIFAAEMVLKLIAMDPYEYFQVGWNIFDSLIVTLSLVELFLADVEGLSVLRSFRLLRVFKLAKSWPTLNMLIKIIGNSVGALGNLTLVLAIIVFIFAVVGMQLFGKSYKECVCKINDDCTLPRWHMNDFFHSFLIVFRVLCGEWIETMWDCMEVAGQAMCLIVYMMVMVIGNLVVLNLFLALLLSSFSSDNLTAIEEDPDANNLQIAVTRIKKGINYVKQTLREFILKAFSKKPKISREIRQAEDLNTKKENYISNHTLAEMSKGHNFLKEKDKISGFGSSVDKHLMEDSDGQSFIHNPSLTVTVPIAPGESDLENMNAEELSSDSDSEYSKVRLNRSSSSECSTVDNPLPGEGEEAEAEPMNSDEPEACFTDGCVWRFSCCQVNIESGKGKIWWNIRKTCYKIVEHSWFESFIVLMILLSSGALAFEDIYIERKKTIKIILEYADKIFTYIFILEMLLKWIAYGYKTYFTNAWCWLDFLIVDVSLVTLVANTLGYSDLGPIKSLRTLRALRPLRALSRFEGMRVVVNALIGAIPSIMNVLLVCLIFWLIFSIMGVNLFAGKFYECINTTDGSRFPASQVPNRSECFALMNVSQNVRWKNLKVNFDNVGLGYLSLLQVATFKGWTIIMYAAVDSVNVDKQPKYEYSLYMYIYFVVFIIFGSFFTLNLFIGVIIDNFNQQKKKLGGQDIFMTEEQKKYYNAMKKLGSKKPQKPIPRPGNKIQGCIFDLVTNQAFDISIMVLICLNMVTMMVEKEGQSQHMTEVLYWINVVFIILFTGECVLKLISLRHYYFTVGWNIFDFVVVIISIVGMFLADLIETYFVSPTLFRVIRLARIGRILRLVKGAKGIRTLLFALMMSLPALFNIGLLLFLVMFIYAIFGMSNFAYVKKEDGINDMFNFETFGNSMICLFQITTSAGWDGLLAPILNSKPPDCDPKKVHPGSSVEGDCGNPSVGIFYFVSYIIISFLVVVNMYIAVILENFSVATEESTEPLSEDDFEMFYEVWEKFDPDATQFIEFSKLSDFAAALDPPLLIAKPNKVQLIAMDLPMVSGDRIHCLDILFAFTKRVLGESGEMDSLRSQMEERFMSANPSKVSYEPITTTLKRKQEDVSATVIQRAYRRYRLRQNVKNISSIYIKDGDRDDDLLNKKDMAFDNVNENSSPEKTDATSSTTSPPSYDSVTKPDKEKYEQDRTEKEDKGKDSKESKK

A word on the IC50: it is the concentration needed to halve the response being measured. For the compound `O=C(NS(=O)(=O)N1CCC1)c1cc(C2CC2)c(OCC2CC3CCC(C2)N3C(c2ccccc2)c2ccccc2)cc1F` (configuration not stated), in experiment [1], it took 5.4 nM to reach half-maximal inhibition (IC50).

Consider `CS(=O)(=O)NC(=O)c1cc(C2CC2)c(OCC2CCN(Cc3ccc(Cl)c(C(F)(F)F)c3)CC2)cc1F`, for which the IC50 in experiment [2] amounted to 169 nM. In other words, the sub-micromolar range.
